Reference: article PMC9760738, “Pharmacokinetics, absorption, distribution, metabolism and excretion of the MEK inhibitor zapnometinib in rats” (Frontiers in Pharmacology, 2022)
Values joined by “and” are separate entries in the source; they are usually repeats but may differ in a detail not shown here. Equal values may be shown once.

Legend:
[1] = QWBA tissue radioactivity, single oral 30 mg/kg, male partially pigmented rats (Group 3); 0.5, 2, 4, 8, 24, 72, 168 h; format: in vivo, rat
Description: The whole-body autoradiography techniques by Ullberg and Larsson was used in this study ([Ullberg and Larsson 1981]). Following a single oral administration of [^14C]-zapnometinib to seven male and seven female partially pigmented rats (Group 3) and four male albino rats (Group 4), one animal per sex (where appropriate) was killed at the following time points post dose: Group 3 (pigmented): 0.5, 2, 4, 8, 24, 72, and 168 h, Group 4 (albino): 2, 24, 72 and 168 h. At sacrifice, each rat was anaesthetized with isoflurane and a blood sample (ca 5 ml) was collected by cardiac puncture into a tube containing K2EDTA anticoagulant. Blood was centrifuged at 2000 ×g for 10 min at 4°C to obtain plasma, which was transferred into plain tubes pending measurement of radioactivity concentration. The blood cells were also retained for analysis.
The rat carcasses were immediately attached to a plate and frozen in a bath of n-heptane and solid CO2 at ca –80°C and then stored at –20 ± 10°C until taken for sectioning. […] [^14C]-Blood standards containing six different known concentrations of radioactivity were used to construct the calibration line for the quantitative determination of tissue concentrations of radioactivity. […] The electronic images of all sections were analyzed at Labcorp–Huntingdon using a validated image analysis package (Seescan Densitometry software, version 2.0). […]

[2] = Excretion balance of radioactivity after single oral 30 mg/kg [14C]-zapnometinib, Sprague-Dawley rats (Group 2); format: in vivo, rat; conditions: for Total recovery: 0-168 h; for Carcass: 168 h
Description: Oral doses of [^14C]-zapnometinib were administered as a suspension in 5% DMSO (v/v), 30% PEG 400 (v/v) and 7.5% (w/v) Captisol in water at a dose level of 30 mg/kg to male and female rats by gastric intubation at a dose volume of 4 ml/kg body weight. The selected dose level (30 mg/kg) was below the no observed adverse effect level (100 mg/kg), the formulation was selected based on data obtained in other nonclinical studies. The radioactive dose administered to each animal was quantified from the weight (excretion studies only) or volume of dosing formulation given, and its mean measured radioactivity concentration. The weight of test compound administered to each rat was determined from the radioactive dose administered and the specific activity of the test material.
Total excreta from three male and three female rats were collected after single oral doses of [^14C]-zapnometinib. Urine was collected into containers cooled in solid CO2 and feces were collected separately at ambient temperature. Expired air was trapped in 1M potassium hydroxide solution. After completion of the final excreta collection, rats were killed by cervical dislocation following sedation, and the carcasses retained for analysis.
Radioactivity was measured by liquid scintillation analysis using Wallac® 1409 automatic liquid scintillation counters. Samples were prepared according to the company’s SOP (see Supplementary Methods). Briefly, replicate weighed samples were mixed with Ultima Gold™ scintillation cocktail (PerkinElmer, United States) for the measurement of radioactivity. Radioactivity in amounts less than twice that of the background concentration in the sample under investigation was below the limit of accurate quantification (BLQ). […]
For Liquid scintillation analyses, carcasses from rats (Group 2) were solubilized by digestion at ca 55 °C overnight in a solution prepared from sodium hydroxide (80 g) and Triton X-405 (100 mL) in purified water (600 mL) and methanol (300 mL). After measurement of total sample weight (as appropriate), replicate portions of diluted dose solutions (ca 0.1 mL), plasma (ca 0.05 – 0.25 mL), urine (ca 0.05 – 0.25 mL), expired air trap solution (ca 1 mL) and cage wash (ca 1 mL) were mixed directly with Ultima Gold scintillation cocktail (5 mL; 15 mL for air traps) for measurement of radioactivity concentrations. Similarly, replicate weighed portions of digested carcass solutions (ca 1 mL plus 1 mL purified water) were mixed with Ultima Gold (10 mL) scintillation cocktail for measurement of radioactivity concentrations. Feces were weighed, then homogenized to a smooth paste after the addition of an appropriate volume (approximately 1.5 volumes) of purified water and the weight of each homogenate was recorded. Replicate weighed portions of feces (ca 0.2 g) and blood cells (ca. 0.25 g) were placed on Combustocones, which were then capped with cellulose pads and burned in oxygen using […]

[3] = individual males 7M, 8M, 9M, rows in order of periods 0-24, 0-48, 0-72, 0-96, 0-120, 0-144, 0-168 h

O=C(O)c1ccc(F)c(F)c1Nc1ccc(I)cc1Cl [zapnometinib, 2-(2-Chloro-4-iodophenylamino)-3,4-difluorobenzoic acid]
Radioactivity in all remaining tissues ([1]; 2 h, male): ≤ 70.0 μg equivs/g | Penetration into the brain ([1]; whole body autoradiography): low | Cumulative excretion, urine ([2]; 0-6 h, male, mean): 0.23 % administered dose | Cumulative excretion, faeces ([2]; 0-24 h, male, mean): 79.34 % administered dose | Cumulative excretion, urine ([2]; 0-24 h, male, mean): 2.20 % administered dose | Cumulative, cage wash ([2]; 0-24 h, male, mean): 0.14 % administered dose | Cumulative, expired air ([2]; 0-24 h, male, mean): 0.02 % administered dose | Cumulative excretion, faeces ([2]; 0-48 h, male, mean): 89.32 % administered dose | Cumulative excretion, urine ([2]; 0-48 h, male, mean): 2.68 % administered dose | Cumulative, cage wash ([2]; 0-48 h, male, mean): 0.18 % administered dose | Cumulative, expired air ([2]; 0-48 h, male, mean): 0.02 % administered dose | Cumulative excretion, faeces ([2]; 0-72 h, male, mean): 90.12 % administered dose | Cumulative excretion, urine ([2]; 0-72 h, male, mean): 2.77 % administered dose | Cumulative, cage wash ([2]; 0-72 h, male, mean): 0.19 % administered dose | Cumulative, expired air ([2]; 0-72 h, male, mean): 0.02 % administered dose | Cumulative excretion, faeces ([2]; 0-96 h, male, mean): 90.28 % administered dose | Cumulative excretion, urine ([2]; 0-96 h, male, mean): 2.80 % administered dose | Cumulative, cage wash ([2]; 0-96 h, male, mean): 0.21 % administered dose | Cumulative excretion, faeces ([2]; 0-120 h, male, mean): 90.34 % administered dose | Cumulative excretion, urine ([2]; 0-120 h, male, mean): 2.82 % administered dose | Cumulative, cage wash ([2]; 0-120 h, male, mean): 0.21 % administered dose | Cumulative excretion, faeces ([2]; 0-144 h, male, mean): 90.37 % administered dose | Cumulative excretion, urine ([2]; 0-144 h, male, mean): 2.83 % administered dose | Cumulative, cage wash ([2]; 0-144 h, male, mean): 0.21 % administered dose | Total recovery ([2]; female, mean): 98.26 % Administered dose | Total recovery ([2]; male, mean): 93.72 % Administered dose | Carcass ([2]; female, mean): 0.19 % Administered dose | Carcass ([2]; male, mean): 0.20 % Administered dose | Radioactivity in carcasses ([2]; 168 h post dose, both sexes): ~0.2% | Cumulative, expired air ([2]; individual males 7M, 8M, 9M, periods 0-24, 0-48, 0-72 h): 0.02 % administered dose | Cumulative excretion, urine ([2]; individual males 7M, 8M, 9M, rows in order of periods 0-6, 0-24, 0-48, 0-72, 0-96, 0-120, 0-144, 0-168 h): 0.23 % administered dose and 0.16 % administered dose and 0.30 % administered dose and 2.69 % administered dose and 1.99 % administered dose and 1.92 % administered dose and 3.13 % administered dose and 2.48 % administered dose and 2.43 % administered dose and 3.20 % administered dose and 2.55 % administered dose and 2.56 % administered dose and 3.22 % administered dose and 2.58 % administered dose and 2.61 % administered dose and 3.23 % administered dose and 2.59 % administered dose and 2.63 % administered dose and 3.24 % administered dose (2×) and 2.60 % administered dose (2×) and 2.64 % administered dose and 2.65 % administered dose | Cumulative excretion, faeces [2, 3]: 81.33 % administered dose and 77.94 % administered dose and 78.75 % administered dose and 90.61 % administered dose and 88.87 % administered dose and 88.48 % administered dose and 91.30 % administered dose and 89.52 % administered dose and 89.53 % administered dose and 91.37 % administered dose and 89.65 % administered dose and 89.82 % administered dose and 91.41 % administered dose and 89.69 % administered dose and 89.92 % administered dose and 91.44 % administered dose and 89.72 % administered dose and 89.96 % administered dose and 91.46 % administered dose and 89.89 % administered dose and 89.99 % administered dose | Cumulative, cage wash [2, 3]: 0.14 % administered dose (2×) and 0.16 % administered dose (4×) and 0.11 % administered dose and 0.22 % administered dose and 0.19 % administered dose and 0.23 % administered dose (5×) and 0.20 % administered dose and 0.15 % administered dose and 0.24 % administered dose (3×) and 0.26 % administered dose and 0.17 % administered dose
